Data as given in patent publication US8629173B2, “Solid forms comprising (+)-2-[1-(3-ethoxy-4-methoxyphenyl)-2-methylsulfonylethyl]-4-acetylaminoisoindoline-1,3-dione, compositions thereof, and uses thereof” (Celgene Corporation, priority 2002, dated 2014).
Converted amounts (≈) assume the structure as drawn.

What was measured:
LPS-induced serum TNF-α = test: Mouse LPS-induced serum TNF-α inhibition; assay type: in vivo; settings: po
Description: Compounds were tested in this animal model according to previously described methods (Corral et al., 1996, Mol. Med., 2:506-515). Mouse LPS-induced serum TNF-α inhibition (ED50, mg/kg, p.o.)=0.05 for Compound A.

PDE4 (from U937 cells) = test: PDE4 (U937 cell-derived) enzyme assay; assay type: biochemical, human; settings: 1 μM cAMP
bovine PDE1 = test: PDE1 enzyme assay; assay type: biochemical
human PDE2 = human PDE2 (Homo sapiens, UniProt O00408); test: PDE2 enzyme assay; assay type: biochemical
Chain of human PDE2 (O00408 whole entry): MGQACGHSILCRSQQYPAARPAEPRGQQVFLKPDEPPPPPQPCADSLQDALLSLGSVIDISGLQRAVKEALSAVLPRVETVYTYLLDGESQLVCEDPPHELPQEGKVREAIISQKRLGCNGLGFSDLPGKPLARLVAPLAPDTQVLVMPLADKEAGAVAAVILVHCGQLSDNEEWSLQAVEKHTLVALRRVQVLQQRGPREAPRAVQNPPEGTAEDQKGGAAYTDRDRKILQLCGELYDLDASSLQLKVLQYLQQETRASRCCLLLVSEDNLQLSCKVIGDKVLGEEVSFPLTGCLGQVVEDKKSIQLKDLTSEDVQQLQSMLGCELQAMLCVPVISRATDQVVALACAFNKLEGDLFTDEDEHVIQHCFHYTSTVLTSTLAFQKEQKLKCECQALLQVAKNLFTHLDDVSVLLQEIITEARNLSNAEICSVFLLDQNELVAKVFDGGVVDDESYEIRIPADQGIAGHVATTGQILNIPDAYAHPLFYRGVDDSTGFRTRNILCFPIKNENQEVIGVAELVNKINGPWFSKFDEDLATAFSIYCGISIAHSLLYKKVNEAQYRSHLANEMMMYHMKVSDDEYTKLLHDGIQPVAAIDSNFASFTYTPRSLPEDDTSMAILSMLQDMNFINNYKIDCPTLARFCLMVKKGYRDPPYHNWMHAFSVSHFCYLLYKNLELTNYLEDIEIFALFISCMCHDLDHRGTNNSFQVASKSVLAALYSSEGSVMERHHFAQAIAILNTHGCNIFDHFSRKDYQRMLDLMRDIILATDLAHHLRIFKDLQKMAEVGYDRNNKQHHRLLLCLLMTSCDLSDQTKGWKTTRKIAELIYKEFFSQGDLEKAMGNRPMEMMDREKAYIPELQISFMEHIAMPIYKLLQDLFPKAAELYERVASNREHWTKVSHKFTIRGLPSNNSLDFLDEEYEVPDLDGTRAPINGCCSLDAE

[1] = test system: neutrophil adhesion to HUVEC; test: fMLF-induced adhesion to HUVEC; assay type: cell-based; settings: human neutrophils, 500 nM fMLF
Description: Human umbilical vein endothelial cells (HUVEC) were used as a substrate for neutrophil adhesion as previously described (Derian et al., 1995, J. Immunol., 154:308-317) with the following modifications. HUVEC cells were obtained from Anthrogenesis (Cedar Knolls, N.J., USA), and neutrophils were not treated with cytochalasin B. Cells were treated with compounds at 10, 1, 0.1, 0.01, 0.001, and 0 μM in a final DMSO concentration of 0.1% in duplicate for 10 minutes, stimulated with 500 nM fMLF for 30 minutes, and washed twice with PBS before measuring fluorescence on an FLX800 plate reader (Bio-Tek Instruments, Winooski, Vt., USA).

[2] = test system: LPS-induced neutrophilia in the lungs of conscious ferrets; test: LPS-induced lung neutrophilia ferret model; assay type: in vivo; settings: Mustela putorius, po, read-out: Inhibition of LPS-induced neutrophilia (ED50)
[3] = test system: moderate to severe plaque-type psoriasis; test: Phase 2 randomized placebo-controlled study in moderate-to-severe psoriasis; assay type: in vivo, human
Description: This phase 2, multicenter, randomized, double-blind, placebo-controlled, parallel-group, dose-comparison study evaluated the efficacy and safety of Compound A in subjects with moderate to severe plaque-type psoriasis who were candidates for systemic therapy. This study included a 12-week treatment phase followed by a 4-week observational follow-up phase. A total of 260 subjects were randomized to receive Compound A 20 mg BID, Compound A 20 mg QD, or placebo for 12 weeks. The primary endpoint for this study was the proportion of subjects treated with Compound A who achieved a 75% reduction in Psoriasis Area and Severity Index score (“PASI-75”) at week 12/last treatment in reference to the baseline visit. Last treatment is defined as the last PASI assessment completed during the 12-week treatment phase.

physchem = settings: pH 7.4, aqueous buffer, thermodynamic from solid
[4] = 20 mg BID, week 12/last treatment

CCOc1cc(C(CS(C)(=O)=O)N2C(=O)c3cccc(NC(C)=O)c3C2=O)ccc1OC (single isomer, unassigned; (+)) [Compound A, (+)-2-[1-(3-ethoxy-4-methoxyphenyl)-2-methylsulfonylethyl]-4-acetylaminoisoindoline-1,3-dione]
ED50 (LPS-induced serum TNF-α): 0.05 mg/kg
IC50 (PDE4 (from U937 cells)): 73.5 nM
PDE1 (% inhib at 10 μM) (bovine PDE1; 10 μM): 23%
PDE Specificity Ratio PDE4/PDE1 (bovine PDE1; from Table 1 data): >500 fold
PDE Specificity Ratio PDE4/PDE2 (human PDE2; from Table 1 data): >10000 fold
inhibition at 10 µM (human PDE2; read-out: PDE2 (% inhib at 10 μM)): 6%
IC50 [1]: 150 nM
ED50 [2]: 0.8 mg/kg
psoriasis flare during the observational follow-up period ([3]; 20 mg BID group, 4-week follow-up): No subjects
study drug-related serious adverse events ([3]; 20 mg BID or 20 mg QD, 12 weeks): No study drug-related serious adverse events
mean decrease in PASI from baseline [3, 4]: 52%
proportion of subjects achieving PASI-50 [3, 4]: 57%
proportion of subjects achieving PASI-90 [3, 4]: 14%
proportion of subjects achieving PASI-75 ([3]; 20 mg BID, week 12/last treatment, P=0.023 vs placebo): 24%
tolerability and safety ([3]; 12 weeks of treatment): well tolerated and safe
solubility (physchem): 12 µg/mL (≈ 26.1 µM)
